Experiment [1] concerns the target Serine/threonine-protein kinase Chk2 (Homo sapiens) (UniProt O96017). The experiment can be described thus: Induction of CHK2 phosphorylation in human irradiated Huh-7 cells at 100 nM measured after 24 hrs by Western blot analysis. Type of experiment: cell-based.
Experiment [2] has as its system LX-2. The experiment can be described thus: Cell cycle arrest in human LX-2 cells assessed as accumulation of cells at G0/G1 phase at 30 nM measured after 24 hrs incubation by PI staining based flow cytometry (reference value: 48.42%). In kind it is functional. For orientation: Flow cytometry measures light scatter and fluorescence of single cells or particles in a stream.

The subject of experiment [3] is LX-2. Kind of experiment: Cell cycle arrest in human LX-2 cells assessed as accumulation of cells at G0/G1 phase at 100 nM measured after 24 hrs incubation by PI staining based flow cytometry (reference value: 48.42%). Type of experiment: functional.
Experiment [4] concerns Huh-7. The experiment can be described thus: Cell cycle arrest in human Huh-7 cells assessed as accumulation of cells at phase G2/M at 50 nM measured after 30 hrs incubation by PI staining based flow cytometry (reference value: 18.42%). In kind it is functional.
Experiment [5] deals with Huh-7. The experiment can be described thus: Induction of immunogenic cell death (ICD) in human Huh-7 cells assessed as translocation of HMGB1 from nucleus to cytoplasm at 100 nM measured after 24 hrs by immunofluorescence assay. Type of experiment: functional, cell-based.
Experiment [6] deals with Huh-7. Kind of experiment: Cell cycle arrest in human Huh-7 cells assessed as accumulation of cells at G0/G1 phase at 100 nM measured after 24 hrs incubation by PI staining based flow cytometry (reference value: 47.97%). Type of experiment: functional.
Experiment [7] relates to Huh-7. Kind of experiment: Induction of immunogenic cell death (ICD) in human Huh-7 cells assessed as externalization of calreticulin (CALR) on the cell membrane at 100 nM measured after 24 hrs by immunofluorescence assay. In kind it is functional, cell-based.
Experiment [8] has as its system Huh-7. The experiment can be described thus: In vivo antitumor activity against human Huh-7 cells xenografted in female BALB/c mouse assessed as reduction in tumor volume at 0.5 mg/kg, iv total 4 doses measured on day 17 relative to control. In kind it is functional. Set-up: scale not given: the % may be the effect or the level left. The conditions noted are these: time 17 day.

For experiment [9], the system named is Hep 3B2. The experiment can be described thus: Cell cycle arrest in human Hep3B cells assessed as accumulation of cells at G2/M phase at 30 nM measured after 24 hrs incubation by PI staining based flow cytometry (reference value: 23%). Type of experiment: functional.
Experiment [10] relates to Huh-7. Kind of experiment: In vivo antitumor activity against human Huh-7 cells xenografted in female BALB/c mouse assessed as reduction in tumor volume at 1 mg/kg, iv total 4 doses measured on day 17 relative to control. Type of experiment: functional. Further details: scale not given: the % may be the effect or the level left. The conditions noted are these: time 17 day. Background: In xenograft studies the graft and the host belong to different species.

For experiment [11], the system named is LX-2. The experiment can be described thus: Cell cycle arrest in human LX-2 cells assessed as accumulation of cells at S phase at 30 nM measured after 24 hrs incubation by PI staining based flow cytometry (reference value: 36.93%). Type of experiment: functional.
Experiment [12] has as its system Huh-7. The experiment can be described thus: Cell cycle arrest in human Huh-7 cells assessed as accumulation of cells at S phase at 30 nM measured after 24 hrs incubation by PI staining based flow cytometry (reference value: 33.15%). In kind it is functional.
The test system of experiment [13] is LX-2. The experiment can be described thus: Cell cycle arrest in human LX-2 cells assessed as accumulation of cells at G0/G1 phase at 10 nM measured after 24 hrs incubation by PI staining based flow cytometry (reference value: 48.42%). In kind it is functional.
The subject of experiment [14] is Huh-7. Kind of experiment: Cell cycle arrest in human Huh-7 cells assessed as accumulation of cells at S phase at 10 nM measured after 24 hrs incubation by PI staining based flow cytometry (reference value: 33.15%). Type of experiment: functional.
In experiment [15] the test system is LX-2. The experiment can be described thus: Cell cycle arrest in human LX-2 cells assessed as accumulation of cells at S phase at 10 nM measured after 24 hrs incubation by PI staining based flow cytometry (reference value: 36.93%). In kind it is functional.
Experiment [16] deals with Huh-7. The experiment can be described thus: Cell cycle arrest in human Huh-7 cells assessed as accumulation of cells at phase G2/M at 50 nM measured after 18 hrs incubation by PI staining based flow cytometry (reference value: 18.42%). In kind it is functional.
In experiment [17] the test system is LX-2. The experiment can be described thus: Cell cycle arrest in human LX-2 cells assessed as accumulation of cells at G2/M phase at 10 nM measured after 24 hrs incubation by PI staining based flow cytometry (reference value: 14.65%). In kind it is functional.
Experiment [18] deals with Huh-7. Kind of experiment: In vivo antitumor activity against human Huh-7 cells xenografted in female BALB/c mouse assessed as reduction in tumor volume at 2 mg/kg, iv total 4 doses measured on day 17 relative to control. Type of experiment: functional. Further details: scale not given: the % may be the effect or the level left. The note with it: time 17 day.

Structures are written as SMILES. Calls of active or inactive are those of the source. No cut-off for these calls is given here.

Sequence of Serine/threonine-protein kinase Chk2 (Homo sapiens) (O96017 whole entry): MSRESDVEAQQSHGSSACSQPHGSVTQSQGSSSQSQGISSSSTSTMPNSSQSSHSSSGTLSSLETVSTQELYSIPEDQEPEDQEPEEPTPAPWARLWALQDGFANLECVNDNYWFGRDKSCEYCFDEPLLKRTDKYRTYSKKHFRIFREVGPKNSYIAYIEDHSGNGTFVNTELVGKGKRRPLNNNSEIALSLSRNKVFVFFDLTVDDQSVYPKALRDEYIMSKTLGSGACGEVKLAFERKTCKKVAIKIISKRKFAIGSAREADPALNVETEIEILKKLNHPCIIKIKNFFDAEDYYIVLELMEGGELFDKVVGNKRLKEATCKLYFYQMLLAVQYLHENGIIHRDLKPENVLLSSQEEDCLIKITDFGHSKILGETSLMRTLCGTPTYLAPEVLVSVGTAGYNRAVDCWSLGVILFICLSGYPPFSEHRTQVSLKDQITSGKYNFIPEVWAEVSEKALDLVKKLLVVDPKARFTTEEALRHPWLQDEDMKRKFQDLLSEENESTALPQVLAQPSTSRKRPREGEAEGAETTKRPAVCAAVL

As for `CC[C@H](C)[C@@H]([C@@H](CC(=O)N1CCC[C@H]1[C@H](OC)[C@@H](C)C(=O)N[C@H](C)[C@@H](O)c1ccccc1)OC)N(C)C(=O)[C@@H](NC(=O)[C@H](C(C)C)N(C)C(=O)OCc1ccc(NC(=O)[C@H](CCCNC(N)=O)NC(=O)[C@@H](NC(=O)CCCCCN2C(=O)CC(SC[C@H](N)C(=O)N[C@@H](CO)C(=O)N[C@@H](CC(N)=O)C(=O)N[C@@H](CC(=O)O)C(=O)N[C@@H](CCCNC(=N)N)C(=O)N3CCC[C@@H]3C(=O)N3CCC[C@@H]3C(=O)N[C@@H](CC(N)=O)C(=O)N[C@H](C(=O)N[C@@H](CC(C)C)C(=O)N[C@@H](CCC(N)=O)C(=O)N[C@@H](CCCCN)C(=O)N[C@@H](CCCNC(=N)N)C(N)=O)[C@@H](C)CC)C2=O)C(C)C)cc1)C(C)C` (stereo partly drawn), the result in [1], in [5] and in [7] was Active. The Activity in experiment [2] turned out to be 46.22%; in [3], 39.1%; in experiment [4], 54.83%; in experiment [6], 12.12%; in [8], 15%; in experiment [9], 45.12%. For the same compound, the Activity in experiment [10] amounted to 40%; in experiment [11], 38.52%; in [12], 13.76%; in [13], 48.82%; in experiment [14] it was 13.8%; in experiment [15] it was 38.15%. The results for the Activity in experiment [16], in experiment [17] and in experiment [18] were 44.55%, 13.04% and 66%, respectively.

The record behind these values is ChEMBL document CHEMBL6182945, “MMAE-Based Peptide-Drug Conjugates Targeting GPC3 for Precision Chemoradiotherapy in Hepatocellular Carcinoma” (J Med Chem, 2025).
